Laboratory results reported in PMC11741150, “Synthesis and In Vitro Antileishmanial Efficacy of Novel Ethylene Glycol Analogues of Benzothiadiazine‐1,1‐dioxide” (Chemistry & Biodiversity, 2024).
“Also recorded” adds a separate entry of the source. Read-outs that look alike come from different tables or passages of the source.

How the values were obtained:
[1] = test system: L. major intramacrophage amastigotes; assay: Intramacrophage antileishmanial growth inhibition assay; format: cell-based, Leishmania major; details: for host cell and parasite death in L. major anti‐amastigote screening: 2 mM of compound, L. major only; for inhibition at 10 µM: Leishmania major, L. major strain IR‐173 (as headed) intramacrophage amastigotes, read-out: Anti‐amastigote growth inhibition (%)
Procedure: (§1) A modified resazurin assay[47, 48] and the two Leishmania strains were also used to assess the efficacy of synthesised compounds against intramacrophage parasites.
(§2) Human monocytic leukemia (THP‐1) cells were cultured in RPMI 1640 medium with L‐glutamine (Sigma Aldrich) supplemented with, 1 % penicillin/streptomycin solution (Lonza), 10 % fetal bovine serum (FBS; Thermofisher Scientific) and 2 g/L sodium bicarbonate (Sigma Aldrich). The cells were maintained in a humidified environment at 37 °C and 5 % CO2.
(§3) For the intramacrophage assay, a 500 000 cells/mL THP‐1 cell suspension was prepared, 25 ng/mL phorbol 12‐myristate 13‐acetate (PMA) added and the suspension seeded in 96 well plates (Nunc, Thermofisher Scientific) at 200 μL/well. Cell‐free growth medium was included as the blank. The plates were incubated for 48 hours in a humidified environment at 37 °C and 5 % CO2 to encourage the differentiation of the suspended cells to adherent macrophages.
(§4) To eliminate non‐adherent cells after the PMA treatment, the plates were carefully washed once with warm PBS. Then, a premade promastigote suspension ([…]) was added. The suspension consisted of stationary phase promastigotes in THP‐1 cell growth medium, with a multiplicity of infection (MOI) of 30 : 1. Parasite‐free medium was also added to selected THP‐1 cell‐containing wells to serve as parasite blank. The plates were thoroughly rinsed four times with warm PBS to get rid of extracellular parasites after being cultured for 24 hours to encourage macrophage infection. The cells were then treated with 160 μL of growth medium and 40 μL of either solvent (parasite blank and negative control with parasites) or 40 μL of compound solutions. For a dual‐point activity screening, 10 μM and 2 mM of compound were prepared in separate plates. Amphothericin B (10 μM) served as the standard antileishmanial drug. The plates were incubated for 72 hours in a humidified environment at 37 °C and 5 % CO2.
(§5) For the plates treated with 10 μM of compound, any serum and extracellular promastigotes that remained were carefully removed from the wells by rinsing with warm PBS. The wells were then treated with 20 μL of 0.05 % sodium dodecyl sulphate (SDS; Sigma Aldrich) in PBS for 30 sec to lyse the macrophages. Lysis was terminated with the addition of 180 μL promastigote growth medium with 10 % FBS. For the resazurin assay, 10 μL of resazurin solution (0.025 % in PBS) was added to each well and the plates were further incubated at 37 °C in for 72 hours in the dark to measure amastigote recovery to proliferative promastigotes.
Any remaining extracellular promastigotes were afterwards carefully removed from the wells by rinsing with warm PBS. The wells were then treated with 50 μL of resazurin solution (0.01 % in PBS) and the plates were further incubated at 37 °C for 4 hours in the dark to assess host cell viability.
(§6) A Thermofisher Scientific's GO Multiscan plate reader was used to measure absorbance at 570 nm and 600 nm. SkanIt 4.0 Research Edition software was used to perform the data analysis for every biological replicate. Background absorbance (600 nm) was subtracted from the 570 nm absorbance data and the mean absorbance was computed.
(§7) For the activity screening, the following formula was used to determine growth inhibition percentage: Growthinhibition%=100-[(ΔAbssample-ΔAbsblank)/(ΔAbsnegcontrol-ΔAbsblank)X100]

[2] = test system: Vero cells; assay: Cytotoxicity resazurin assay; format: cell-based; details: Chlorocebus sabaeus, 48 hours, ±standard deviation, maximum concentration 2 mM
Procedure: The cytotoxicity of the synthesised compounds was evaluated using the resazurin assay. The assay involves live cells converting oxidized blue resazurin dye to pink, highly fluorescent resorufin through irreversible enzymatic reduction.[44] This non‐toxic reagent is a useful instrument for determining drug toxicity and cell growth.
Dulbecco's modified Eagle's medium (DMEM) with high glucose (Separations) supplemented with 1 % L‐glutamine, non‐essential amino acids, and penicillin‐streptomycin (Sigma Aldrich), and 10 % fetal bovine serum (Thermofisher Scientific) was used to cultivate Vero cells. The cells were kept at 37 °C and 5 % CO2 in a humidified environment. For the assay, 96 well plates were prepared by pipetting 100 μL of cell suspension (60 000 cells/mL) per well and incubating the plates for 24 hours. The cells were then treated with seven two‐fold concentration dilutions of: (1) 1 μM emetine dihydrochloride (Sigma Aldrich) solution (positive control); (2) 2 mM experimental compound solutions. Cell‐free growth medium was included as a blank. The treated plates were incubated for 48 hours.
To initiate the resazurin assay, 50 μL of sterile‐filtered resazurin sodium salt (Sigma Aldrich) solution (0.01 % in phosphate‐buffered saline (PBS)) was added to the prepared plates and then incubated for 2 hours. A Thermofisher Scientific's GO Multiscan plate reader was used to measure the absorbance at 570 and 600 nm. SkanIt 4.0 Research Edition software was used to perform the data analysis for every biological replicate. After subtracting background absorbance (600 nm) from the 570 nm absorbance data, the mean absorbance was computed, and the percentage of viable cells was estimated using the formula below: Cellviability%=(ΔAbssample-ΔAbsblank)/(ΔAbsnegcontrol-ΔAbsblank)X100
GraphPad Prism 5 was used to calculate the IC50 and Z‐score for each compound's biological replicate. The mean IC50 of the biological replicates and standard deviation (SD) was calculated to determine the final IC50 of each compound.

[3] = test system: Leishmania donovani (strain 9515 (MHOM/IN/95/9515)) promastigotes; assay: Antipromastigote resazurin assay; format: cell-based; details: for IC50: promastigotes, maximum concentration 2 mM, ±standard deviation, read-out: L. donovani 9515 antipromastigote IC50; for inhibition at 10 µM: L. donovani strain 9515 promastigotes, read-out: Antipromastigote growth inhibition (%)
Procedure: The antipromastigote activity of synthesised compounds was evaluated using a modified method of the resazurin assay[45, 46] against two Leishmania strains.
Leishmania donovani (strain 9515 (MHOM/IN/95/9515)) and L. major (strain NIH S (MHOM/SN/74/Seidman)) promastigotes were cultured in M199 with Hank's salts and 0.68 mM L‐glutamine (Sigma Aldrich) supplemented with 0.0005 % hemin, 0.0001 % biotin, 0.1 mM adenine (Sigma Aldrich), 10 % fetal bovine serum, 50 U/mL Penicillin/Streptomycin solution, 4.2 mM sodium bicarbonate and 25 mM Hepes buffer. The promastigotes were maintained at an adjusted pH of 7.3–7.4 growth medium at 26 °C. […] Amphothericin B (10 μM) served as the standard antileishmanial drug and parasite‐free growth medium was included as the blank. The plates were incubated for 48 hours at 26 °C in humidified environment.
Following the initial incubation, 50 μL of resazurin solution (0.01 % in PBS) was added to each well and the plates underwent further incubation at 26 °C for 24 hours in the dark. A Thermofisher Scientific's GO Multiscan plate reader was used to measure absorbance at 570 nm and 600 nm. SkanIt 4.0 Research Edition software was used to perform the data analysis for every biological replicate. Background absorbance (600 nm) was subtracted from the 570 nm absorbance data and the mean absorbance was computed. The cell viability and data analysis were performed as indicated in the cytotoxicity assay.

[4] = test system: L. major (strain NIH S (MHOM/SN/74/Seidman)) promastigotes; assay: Antipromastigote resazurin assay; format: cell-based, Leishmania major; details: for IC50: promastigotes, maximum concentration 2 mM, ±standard deviation; for inhibition at 10 µM: L. major strain IR‐173 (as headed) promastigotes, read-out: Antipromastigote growth inhibition (%)
[5] = test system: L. donovani strain 9515 intramacrophage amastigotes; assay: Intramacrophage antileishmanial growth inhibition assay; format: cell-based; details: Leishmania donovani, read-out: Anti‐amastigote growth inhibition (%)
Procedure: as §1, §2, §3, §4, §5, §6, §7

Row | SMILES | host cell and parasite death in L. major anti‐amastigote screening [1] | inhibition at 10 µM [1] [%] | IC50 [2] [µM] | SI1: Selectivity index=IC50 Vero/L. donovani 9515 antipromastigote IC50 [3] | IC50 ([3]; Leishmania donovani) [µM] | inhibition at 10 µM ([3]; Leishmania donovani) [%] | SI2: Selectivity index=IC50 Vero/L. major antipromastigote IC50 [4] | IC50 ([4]; Leishmania major) [µM] | inhibition at 10 µM ([4]; Leishmania major) [%] | inhibition at 10 µM [5] [%] | IC50 [3] [µM] | IC50 [4] [µM]
1 | C#CCN1C=Nc2ccccc2S1(=O)=O [Compound 14, 2‐(Prop‐2‐yn‐1‐yl)‐2H‐benzo[e][1,2,4]thiadiazine‐1,1‐dioxide] | killed both parasite and host cell | 0 | 535 ± 21.8 | 2.25 | 238 ± 14.5 | 1 | 2.89 | 185 ± 22.1 | 23 | 0 |  | 
2 | C=CCOCCN1C=Nc2ccccc2S1(=O)=O [Compound 13, 2‐[2‐(Allyloxy)ethyl]‐2H‐benzo[e][1,2,4]thiadiazine‐1,1‐dioxide] | killed both parasite and host cell | 0 | 531 ± 15.7 |  | 360 ± 12.5 | 15 | 1.17 | 455 ± 9.55 | 0 | 0 |  | 
3 | CCOCCOCCN1C=Nc2ccccc2S1(=O)=O [Compound 7, 2‐[2‐(2‐Ethoxyethoxy)ethyl]‐2H‐benzo[e][1,2,4]thiadiazine‐1,1‐dioxide] | both host cell and parasite death; also recorded: killed both parasite and host cell | 0 | 727 ± 61.7 | 1.71 | 426 ± 34.7 | 0 | 1.48 | 491 ± 28.6 | 0 | 0 |  | 
4 | COCCOCCOCCN1C=Nc2ccccc2S1(=O)=O [Compound 5, 2‐{2‐[2‐(2‐Methoxyethoxy)ethoxy]ethyl}‐2H‐benzo[e][1,2,4]thiadiazine‐1,1‐dioxide] | both host cell and parasite death | 0 | 999 ± 16.8 | 1.20 | 830 ± 10.5 | 5 | 0.89 |  | 0 | 0 |  | 
5 | O=S1(=O)c2ccccc2N=CN1CCOc1ccc(Cl)cc1 [Compound 11, 2‐[2‐(4‐Chlorophenoxy)ethyl]‐2H‐benzo[e][1,2,4]thiadiazine‐1,1‐dioxide] | killed both parasite and host cell | 0 | 747 ± 188 | 2.57 | 290 ± 21.4 | 3 | 2.49 | 300 ± 3.68 | 0 | 0 |  | 
6 | CCOCCN1C=Nc2ccccc2S1(=O)=O [Compound 6, 2‐(2‐Ethoxyethyl)‐2H‐benzo[e][1,2,4]thiadiazine‐1,1‐dioxide] |  | 0 | 470 ± 225 |  | 333 ± 45.1 | 2 |  | 586 ± 47 | 0 | 0 |  | 
7 | CC[C@H]1CN2CCc3cc(OC)c(OC)cc3[C@@H]2C[C@@H]1C[C@H]1NCCc2cc(OC)c(OC)cc21 [Em, emetine, reference compound] |  |  | 0.08 ± 0.01 |  |  |  |  |  |  |  |  | 
8 | O=S1(=O)c2ccccc2N=CN1CCOc1ccccc1 [Compound 9, 2‐(2‐Phenoxyethyl)‐2H‐benzo[e][1,2,4]thiadiazine‐1,1‐dioxide] | both host cell and parasite death; also recorded: killed both parasite and host cell | 0 | 975.3 ± 3.68 | 6.36 | 153 | 7 | 9.41 | 103 | 58 | 0 | 153 ± 7.92 | 104 ± 4.53
9 | COCCOCCN1C=Nc2ccccc2S1(=O)=O [Compound 4, 2‐[2‐(2‐Methoxyethoxy)ethyl]‐2H‐benzo[e][1,2,4]thiadiazine‐1,1‐dioxide] |  | 0 | 988 ± 10.6 |  | 701.6 ± 4.17 | 0 |  | 919 ± 22.3 | 0 | 0 |  | 
10 | CCOCCOCCOCCN1C=Nc2ccccc2S1(=O)=O [Compound 8, 2‐{2‐[2‐(2‐Ethoxyethoxy)ethoxy]ethyl}‐2H‐benzo[e][1,2,4]thiadiazine‐1,1‐dioxide] |  | 0 | 922 ± 93.9 |  | 809 ± 20.2 | 3 |  | 909 ± 124 | 0 | 0 |  | 
